As a reminder, the pIC50 is the negative decadic logarithm of the IC50, by convention in mol/L.

pIC50: −log10 of the molar value.

One assay concerns the target T1, P2X7 receptor (Homo sapiens, UniProt Q99572).
T1 sequence (Q99572 1-595): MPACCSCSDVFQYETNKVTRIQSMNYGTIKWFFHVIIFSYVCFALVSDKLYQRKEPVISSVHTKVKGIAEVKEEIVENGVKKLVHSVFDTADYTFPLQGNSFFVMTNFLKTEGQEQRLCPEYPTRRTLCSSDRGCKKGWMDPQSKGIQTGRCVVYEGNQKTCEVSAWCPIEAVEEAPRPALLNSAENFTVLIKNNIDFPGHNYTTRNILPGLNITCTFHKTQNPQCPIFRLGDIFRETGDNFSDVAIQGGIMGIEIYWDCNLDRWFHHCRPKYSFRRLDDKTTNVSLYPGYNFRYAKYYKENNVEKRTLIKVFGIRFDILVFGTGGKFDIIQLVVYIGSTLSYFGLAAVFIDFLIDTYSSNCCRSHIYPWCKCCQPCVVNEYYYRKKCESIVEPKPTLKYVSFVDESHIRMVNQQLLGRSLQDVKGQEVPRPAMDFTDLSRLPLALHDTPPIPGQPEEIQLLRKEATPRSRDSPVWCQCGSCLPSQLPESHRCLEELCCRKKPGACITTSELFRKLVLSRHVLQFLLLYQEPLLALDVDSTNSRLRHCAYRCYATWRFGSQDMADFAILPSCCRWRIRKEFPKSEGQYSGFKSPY
Experiment: not given
Conditions: at the concentration of 500 nM; cited from earlier work.
On to `CN([C@@H](Cc1ccc(OS(=O)(=O)c2cccc3cnccc23)cc1)C(=O)N1CCN(c2ccccc2)CC1)S(=O)(=O)c1cccc2cnccc12` [KN62, 1-N,0-(bis(1,5-isoquinolinesulfonyl)-N-methyl-L-tyrosyl)-4-phenylpiperazine], for which the “inhibition of the P2X7 receptor” value is recorded as “complete inhibition”.

Another assay relates to Adriamycin-resistant cells (HL-60).
Experiment: not given
Conditions: KN62 2 μM (non-cytotoxic), Adriamycin-resistant HL-60 cells; cited from earlier work.
Consider `CN([C@@H](Cc1ccc(OS(=O)(=O)c2cccc3cnccc23)cc1)C(=O)N1CCN(c2ccccc2)CC1)S(=O)(=O)c1cccc2cnccc12` [KN62, 1-N,0-(bis(1,5-isoquinolinesulfonyl)-N-methyl-L-tyrosyl)-4-phenylpiperazine], for which the “enhancement of VP-16 induced topoisomerase II-mediated DNA cleavable complex formation” value was 2- to 4 fold.

A further assay concerns the target T1, P2X7 receptor. Description: Inhibition of ATP-induced calcium influx in human monocytes (fura-2/AM). The format is cell-based. Details: endogenous in cells; host or cells: human monocytes. Conditions: inhibiting calcium influx in human monocytes in the presence of 1 mM ATP; read-out: P2X7 Antagonist Activity IC50. As to the method:
Table 1 illustrates the IC50 values for compounds toward inhibiting calcium influx in human monocytes in the presence of 1 mM ATP.
Ca^2+ measurements. Changes in Ca^2+ were measured with the fluorescent indicator fura-2/AM (Molecular Probes, Inc., Eugene, Oreg.) as described previously.^32 Briefly, cells were loaded with […] of fura-2/AM and incubated in a thermostat-controlled (37° C.) and magnetically stirred fluorometer cuvette (model LS50, Perkin-Elmer Ltd., Beaconsfield, UK). Intracellular Ca^2+ concentration was determined with the 340/380 excitation ratio at an emission wavelength of 500 nm. All experiments were repeated three times.
For `Cc1ccccc1N1CCN(C(=O)[C@H](Cc2ccc(OS(=O)(=O)c3cccnc3)cc2)N(C)S(=O)(=O)c2cccnc2)CC1` [1-[(S)-N,O-bis-(3-pyridinesulfonyl)-N-methyl-tyrosyl]-4-(2-methylphenyl)-piperazine], the pIC50 was 5.04.

With `CN([C@@H](Cc1ccc(OS(=O)(=O)c2cccnc2)cc1)C(=O)N1CCN(c2ccccc2)CC1)S(=O)(=O)c1cccnc1` [1-[(S)-N,O-bis-(3-pyridinesulfonyl)-N-methyl-tyrosyl]-4-phenyl-piperazine], the pIC50 was 6.02.

On to `CN([C@@H](Cc1ccc(OS(=O)(=O)c2cccc3cnccc23)cc1)C(=O)N1CCN(C(=O)c2ccc(F)cc2)CC1)S(=O)(=O)c1cccc2cnccc12` [1-[(S)-N,O-bis-(isoquinolinesulfonyl)-N-methyl-tyrosyl]-4-(4-fluorobenzoyl)-piperazine]], for which the negative-log IC50 (pIC50) was 6.42.

Take `CC(=O)c1ccc(N2CCN(C(=O)[C@H](Cc3ccc(OS(=O)(=O)c4cccc5cnccc45)cc3)N(C)S(=O)(=O)c3cccc4cnccc34)CC2)cc1` [1-[(S)-N,O-bis-(isoquinolinesulfonyl)-N-methyl-tyrosyl]-4-(4-acetylphenyl)-piperazine]]: the pIC50 is 7.15.

Consider “1-[(S)-N,O-bis-(isoquinolinesulfonyl)-N-methyl-tyrosyl]-4-(4-aminophenyl)-piperazine”, for which the pIC50 was 7.00.

For the compound “1-[(S)-N,O-bis-(isoquinolinesulfonyl)tyrosyl]-4-(o-tolyl)-piperazine”, the pIC50 was 7.54.

For “1-[(S)-N,O-bis-(isoquinolinesulfonyl)-N-methyl-tyrosyl]-4-(4-methoxy-phenyl)-piperazine”, the pIC50 is 6.88.

Regarding “1-[(S)-N,O-bis-(isoquinolinesulfonyl)-N-methyl-tyrosyl]-4-(3,4-dichloro-phenyl)-piperazine”, the pIC50 is 7.47.

For the compound “1-[(S)-N,O-bis-(isoquinolinesulfonyl)-N-methyl-tyrosyl]-4-(4-nitrophenyl)-piperazine”, the negative-log IC50 (pIC50) is 8.24.

Regarding “1-[(S)-N,O-bis-(isoquinolinesulfonyl)tyrosyl]-4-(4-fluorophenyl)-piperazine”, the pIC50 is 8.22.

With “1-[(S)-N,O-bis-(isoquinolinesulfonyl)-N-methyl-tyrosyl]-4-(2,3-dimethylphenyl)-piperazine”, the pIC50 is 5.95.

With `CN([C@@H](Cc1ccc(OS(=O)(=O)c2cccc3cnccc23)cc1)C(=O)N1CCN(c2ccc(I)cc2)CC1)S(=O)(=O)c1cccc2cnccc12` [1-[(S)-N,O-bis-(isoquinolinesulfonyl)-N-methyl-tyrosyl]-4-(4-iodophenyl)-piperazine]], the pIC50 is 6.75.

For `CN([C@@H](Cc1ccc(OS(=O)(=O)c2cccc3cnccc23)cc1)C(=O)N1CCN(Cc2ccc(F)cc2)CC1)S(=O)(=O)c1cccc2cnccc12` [1-[(S)-N,O-bis-(isoquinolinesulfonyl)-N-methyl-tyrosyl]-4-(4-fluorobenzyl)-piperazine]], the pIC50 is 8.24.

Regarding “1-[(S)-N,O-bis-(isoquinolinesulfonyl)-N-methyl-tyrosyl]-4-benzylpiperazine”, the pIC50 was 7.68.

As to “1-[(S)-N,O-bis-(isoquinolinesulfonyl)-N-methyl-tyrosyl]-4-(3-trifluoromethyl-phenyl)-piperazine”, the pIC50 is 7.51.

Consider `CN([C@@H](Cc1ccc(OS(=O)(=O)c2cccc3cnccc23)cc1)C(=O)N1CCN(c2ccccc2)CC1)S(=O)(=O)c1cccc2cnccc12` [KN62, 1-N,0-(bis(1,5-isoquinolinesulfonyl)-N-methyl-L-tyrosyl)-4-phenylpiperazine], for which the pIC50 is 7.29.

As for “1-[(S)-N,O-bis-(isoquinolinesulfonyl)-N-methyl-tyrosyl]-4-phenethyl-piperazine”, the pIC50 was 6.22.

For “1-[(S)-N,O-bis-(isoquinolinesulfonyl)-N-methyl-tyrosyl]-4-(2-chlorophenyl)-piperazine”, the pIC50 is 7.80.

Regarding “1-[(S)-N,O-bis-(isoquinolinesulfonyl)-N-methyl-tyrosyl]-4-(pyrimidin-2-yl)-piperazine”, the pIC50 was 7.10.

Turning to “1-[(S)-N,O-bis-(isoquinolinesulfonyl)-N-methyl-tyrosyl]-4-(pyridin-2-yl)-piperazine”, the pIC50 was 6.77.

Regarding “1-[(S)-N,O-bis-(isoquinolinesulfonyl)-N-methyl-tyrosyl]-4-benzylpiperidine”, the pIC50 is 7.19.

Take `CN([C@@H](Cc1ccc(OS(=O)(=O)c2cccc3cnccc23)cc1)C(=O)N1CCN(Cc2ccc([N+](=O)[O-])cc2)CC1)S(=O)(=O)c1cccc2cnccc12` [1-[(S)-N,O-bis-(isoquinolinesulfonyl)-N-methyl-tyrosyl]-4-(4-nitrobenzyl)-piperazine]]: the pIC50 is 7.91.

On to `CN([C@@H](Cc1ccc(OS(=O)(=O)c2cccc3cnccc23)cc1)C(=O)N1CCN(c2ccc(C#N)cc2)CC1)S(=O)(=O)c1cccc2cnccc12` [1-[(S)-N,O-bis-(isoquinolinesulfonyl)-N-methyl-tyrosyl]-4-(4-cyanophenyl)-piperazine]], for which the pIC50 is 7.01.

For `CN([C@@H](Cc1ccc(OS(=O)(=O)c2cccc3cnccc23)cc1)C(=O)N1CCN(c2ccccc2F)CC1)S(=O)(=O)c1cccc2cnccc12` [1-[(S)-N,O-bis-(isoquinolinesulfonyl)-N-methyl-tyrosyl]-4-(2-fluorophenyl)-piperazine]], the pIC50 was 7.73.

Consider “1-[(S)-N,O-bis-(isoquinolinesulfonyl)-N-methyl-tyrosyl]-4-(4-fluorophenyl)-piperazine”, for which the pIC50 is 8.88.

Consider “1-[(S)-N,O-bis-(isoquinolinesulfonyl)-N-methyl-tyrosyl]-4-(3-chlorophenyl)-piperazine”, for which the pIC50 was 7.85.

Consider `CN([C@@H](Cc1ccc(OS(=O)(=O)c2cccc3cnccc23)cc1)C(=O)N1CCN(c2ccc(Cl)cc2)CC1)S(=O)(=O)c1cccc2cnccc12` [1-[(S)-N,O-bis-(isoquinolinesulfonyl)-N-methyl-tyrosyl]-4-(4-chlorophenyl)-piperazine]], for which the pIC50 was 6.98.

Regarding “1-[(S)-N,O-bis-(isoquinolinesulfonyl)-N-methyl-tyrosyl]-4-(p-tolyl)-piperazine”, the pIC50 was 7.87.

Turning to “1-[(S)-N,O-bis-(isoquinolinesulfonyl)-N-methyl-tyrosyl]-4-o-tolyl-piperazine”, the pIC50 is 7.82.

As to “1-[(S)-N,O-bis-(isoquinolinesulfonyl)-N-methyl-tyrosyl]-4-(2-methoxy-phenyl)-piperazine”, the pIC50 is 7.08.

(Values after patent US7094895B2, “Tyrosyl derivatives and their use as P2X7 receptor modulators” (King Pharmaceuticals Research & Development, Inc., priority 2001, dated 2006).)
